For data set [1], the system named is lipid peroxide formation in rat brain tissue homogenate. The experiment in a line: Activity to inhibit lipid peroxide formation in rat brain tissue homogenate (TBA method). It counts as biochemical, rat (male SD). The following applies: 10^-5 M; n = 3, mean; 5% brain homogenate, pH 7.4, 37° C., 1 hour. As for the experimental part: Activity to inhibit lipid peroxide formation in rat brain tissue homogenate: Male SD rats (12-week-old) were subjected to exsanguination under anesthesia with pentobarbital, then the brain was excised. The brain tissue was homogenized in a phosphate buffer (pH 7.4) to prepare a 5% homogenate. After incubation of the homogenate at 37° C. for 1 hour, the amount of lipid peroxides formed therein was determined by the thiobarbituric acid (TBA) method in accordance with the report of Ohkawa et al. on Analytical Biochemistry, 95, 351, (1979). The test drug was added to the 5% homogenate before incubation so as to make the final concentration to be 10^-5 M. The activity to inhibit the formation of lipid peroxide was judged by comparing the amount of the lipid peroxide in the treated group with that of the reference group to which was added the solvent (DMSO), and shown by % inhibition.

For a further data set, the system named is mice. The experiment in a line: Acute toxicity in mice. The following applies: for sedation and ptosis: six mice per group. It is filed as in vivo. The protocol: Male Crj-ICR mice (4-week-old, 21 to 26 g) were used. The animals, divided into groups, each consisting of six mice, were administered orally with compounds (4-b, 4-1) at the dosages of 300 and 1000 mg/kg, respectively. Then, each group was housed in a cage and observed for 24 hours.
The test drugs were suspended in gum arabic and administered at a volume of 0.1 ml/10 g.

Another data set deals with rat hearts. Nature of the data set: Activity to inhibit occurrence of ventricular arrhythmia during coronary artery occlusion-reperfusion in rat hearts. It counts as in vivo, rat (male SD). More on the design: Ventricular fibrillation, incidence / Ventricular tachycardia, incidence: unit not given here. The following applies: for Ventricular fibrillation, incidence / Ventricular tachycardia, incidence: (10 min.) after reperfusion; for Ventricular fibrillation, incidence / Ventricular tachycardia, incidence / Ventricular fibrillation, duration / Ventricular tachycardia, duration: average ±SEM; for Mortality: killed animals/test animals; for mortality due to VF (in words) / occurrence of arrhythmia (in words) / period of time during which arrhythmia lasted (in words) / frequency of occasional PVCs (in words): 10 mg/kg; for frequency of occasional PVCs (in words): vs vehicle around 10 times/minute; for effect on arrhythmia (in words): oral. An excerpt: Activity to inhibit occurrence of ventricular arrhythmia during coronary artery occlusion-reperfusion in rat hearts
Male SD rats (9- to 13-week old, 250 to 370 g) were used. The animals were subjected to thoractonomy under artificial respiration while anesthesia was maintained by administering pentobarbital. […] By recording standard limb lead II electrocardiograms, occurrence of ventricular arrhythmia was examined. […]
Incidences of ventricular fibrillation and ventricular tachycardia are shown by the percentage of the number of animals presenting the symptoms relative to the number of animals subjected to the test, and the duration of the symptoms was shown by average ±SEM in seconds. Extrasystole is shown by the number of systole/min., and the mortality is shown by the percentage of the number of killed animals relative to the number of test animals.

On to `CCCCCCCCCCCCCCOc1ccc(C2=C(O)CN(C)C2=O)cc1` [Compound 4-a], for which, in data set [1], the “Inhibition rate of lipid peroxide formation” value (shortened to “Inhibition rate”) is given as 97.9%.

Regarding `CCCCCCCCCCCCOc1ccc(C2=C(O)CN(C)C2=O)cc1` [Compound 4-b, N-methyl-3-(4-dodecyloxyphenyl)-4-hydroxy-3-pyrrolin-2-one], the “Inhibition rate” value in data set [1] was found to be 97.9%. Besides, in the data set with mice (oral, 300 and 1000 mg/kg), the “time to recovery from sedation and ptosis” value is not above 3 h; the sedation and ptosis entry was “observed on half number of the test animals”. For the same molecule, the deaths result with mice (oral, 300 and 1000 mg/kg, 24-hour observation) is “no test animals of either group were killed”.

`CCCCCCCCCCCCOc1ccc(C2=C(O)CN(CC(C)C)C2=O)cc1` [Compound 4-c]: in data set [1], the “Inhibition rate” value turned out to be 100%.

Turning to `CCCCCCCCCCCCOc1ccc(C2=C(O)CN(CCCCCCCCCCCC)C2=O)cc1` [Compound 4-d], the “Inhibition rate” value in data set [1] is on record as 100%.

As for `CCCCCCCCCCCCOc1ccc(C2=C(O)CN(c3ccccc3)C2=O)cc1` [Compound 4-e], the “Inhibition rate” value in data set [1] was 100%.

As for `CCCCCCCCCCCCOc1ccc(C2=C(O)CN(Cc3ccccc3)C2=O)cc1` [Compound 4-f], the “Inhibition rate” value in data set [1] is recorded as 75.5%.

With `CCCCCCCCCCCCOc1ccc(C2=C(O)CN(CCc3ccccc3)C2=O)cc1` [Compound 4-g], in data set [1], the “Inhibition rate” value is listed as 100%.

On to `CCCCCCCCCCCCOc1ccc(C2=C(O)CN(CCCc3ccccc3)C2=O)cc1` [Compound 4-h], for which, in data set [1], the “Inhibition rate” value was determined as 100%.

For `CCCCCCCCCCCCOc1ccc(C2=C(O)CN(Cc3ccsc3)C2=O)cc1` [Compound 4-i], the “Inhibition rate” value in data set [1] came to 89.4%.

As to `CCCCCCCCCCCCOc1ccc(C2=C(O)CN(Cc3ccc(C(=O)OC)cc3)C2=O)cc1` [Compound 4-j], in data set [1], the “Inhibition rate” value came to 52.8%.

Regarding `CCCCCCCCCCCCOc1ccc(C2=C(O)CN(Cc3ccc(C(=O)O)cc3)C2=O)cc1` [Compound 4-k], in data set [1], the “Inhibition rate” value stood at 63.8%.

As to `CCCCCCCCCCCCOc1ccc(C2=C(O)CN(Cc3cc(OC)c(OC)c(OC)c3)C2=O)cc1` [Compound 4-l], the “Inhibition rate” value in data set [1] was found to be 96.7%. Further, in the data set on rat hearts (3 mg/Kg), the Extrasystole was 5.4 ± 1.1 times/min; the “Ventricular fibrillation, incidence” value was determined as 0.8 ± 0.4; the “Ventricular tachycardia, incidence” value is given as 3.5 ± 0.8; the “Ventricular fibrillation, duration” value was found to be 1.7 ± 1.2 s. Moreover, in the data set with rat hearts (3 mg/Kg), the “Ventricular tachycardia, duration” value was 7.1 ± 2.2 s and the Mortality is 0/8. Besides, in the data set on rat hearts, the “mortality due to VF (in words)” value is reported as “low”, the “occurrence of arrhythmia (in words)” value is reported as “suppressed remarkably”, the “period of time during which arrhythmia lasted (in words)” value is “shortened” and the “frequency of occasional PVCs (in words)” value was “significantly less”. Further, the deaths entry in the data set with mice (mouse, in vivo) is “no test animals of either group were killed”. In the data set on mice (oral, 300 and 1000 mg/kg), the “time to recovery from sedation and ptosis” value was not above 3 h; the sedation and ptosis entry is recorded as “observed on half number of the test animals”.

For `CCCCCCCCCCCCOc1ccc(C2=C(O)CN(Cc3c(C)c(OC)c(C)c(C)c3OC)C2=O)cc1` [Compound 4-m], the “Inhibition rate” value in data set [1] was 100%.

`CCCCCCCCCCCCOc1ccc(C2=C(O)CN(Cc3ccc(Cl)cc3)C2=O)cc1` [Compound 4-n]: the “Inhibition rate” value in data set [1] is on record as 100%.

Take `CCCCCCCCCCCCCCCCCCOC1=C(O)CN(Cc2cc(OC)c(OC)c(OC)c2)C1=O` [Compound 4-p]: in the data set with rat hearts (10 mg/Kg), the Extrasystole is reported as 3.3 ± 0.7 times/min; the “Ventricular fibrillation, incidence” value is listed as 0.9 ± 0.3; the “Ventricular tachycardia, incidence” value was determined as 4.1 ± 1.2; the “Ventricular fibrillation, duration” value is 2.1 ± 1.3 s. Besides, in the data set on rat hearts (10 mg/Kg), the “Ventricular tachycardia, duration” value worked out at 7.3 ± 2.4 s and the Mortality is 0/9. Further, in the data set with rat hearts, the “mortality due to VF (in words)” value is recorded as “low”, the “occurrence of arrhythmia (in words)” value was “suppressed remarkably”, the “period of time during which arrhythmia lasted (in words)” value is “shortened” and the “frequency of occasional PVCs (in words)” value was “significantly less”.

For `O=C1O[C@H]([C@@H](O)CO)C(O)=C1O` [Vitamin C, reference compound], the “Inhibition rate” value in data set [1] is given as -71.6%. In the data set on rat hearts (50 mg/kg), the Extrasystole came out at 11.0 ± 0.8 times/min; the “Ventricular fibrillation, incidence” value came out at 5.4 ± 0.8; the “Ventricular tachycardia, incidence” value is reported as 9.5 ± 1.8; the “Ventricular fibrillation, duration” value is 74.1 ± 36.0 s. For the same molecule, in the data set with rat hearts (50 mg/kg), the “Ventricular tachycardia, duration” value was determined as 12.0 ± 2.9 s; the Mortality is listed as 1/12; the “effect on arrhythmia (in words)” value is “no significant effect”.

Take Vitamin E [reference compound]: in data set [1], the “Inhibition rate” value is recorded as 44.9%. Also, in the data set on rat hearts (50 mg/kg), the Extrasystole is listed as 7.0 ± 4.1 times/min; the “Ventricular fibrillation, incidence” value is on record as 2.0 ± 0.7; the “Ventricular tachycardia, incidence” value is recorded as 3.7 ± 1.5; the “Ventricular fibrillation, duration” value was 43.4 ± 36.0 s. Besides, in the data set on rat hearts (50 mg/kg), the “Ventricular tachycardia, duration” value stood at 22.3 ± 9.7 s; the Mortality was 1/10; the “effect on arrhythmia (in words)” value is listed as “no significant effect”.

The values are drawn from patent US4925868A, “4-Hydroxy-3-pyrrolin-2-ones and treatment of circulatory disorders therewith” (Takeda Chemical Industries, Ltd., priority 1986, dated 1990).
